Data from ChEMBL document CHEMBL1133185, “Inhibition of clinically relevant mutant variants of HIV-1 by quinazolinone non-nucleoside reverse transcriptase inhibitors” (J Med Chem, 2000).

Assays:
[1] = tested on: Human immunodeficiency virus 1; assay: Antiviral activity toward K103N mutant HIV-1 virus as protein binding adjusted (PB adj).; assay type: functional
[2] = tested on: Human immunodeficiency virus 1; assay: Antiviral activity was evaluated for the inhibition of wild-type RF strain of HIV-1 in an in vitro enzyme assay.; assay type: functional
[3] = target: Human immunodeficiency virus type 1 reverse transcriptase (Human immunodeficiency virus 1, UniProt Q72547); assay: Inhibition of HIV-1 reverse transcriptase.
[4] = tested on: Human immunodeficiency virus 1; assay: Antiviral activity against HIV-1 K103N mutant virus.; assay type: functional
[5] = tested on: Human immunodeficiency virus 1; assay: In vitro antiviral activity against HIV-1 (L100I).; assay type: functional
[6] = target: Human immunodeficiency virus type 1 reverse transcriptase (Human immunodeficiency virus 1) (UniProt Q72547); conditions: Plasma
Description: Effect of human plasma protein binding on antiviral efficacy.

Homo sapiens [7] = organism: Homo sapiens; assay: (§1) percentage of the free compound in tissue culture medium
MT2 [8] = assay: Antiviral activity against RF strain of HIV in MT-2 cells by yield assay; assay type: functional; conditions: Homo sapiens
[9] = tested on: Human immunodeficiency virus 1; assay: Potency against Mutant HIV-1 K103N; assay type: functional
[10] = tested on: Human immunodeficiency virus 1; assay: Plasma Potency against Mutant HIV-1 K103N; assay type: functional; conditions: Human immunodeficiency virus 1, Plasma
MT2 [11] = assay: Antiviral activity against RF strain of HIV in MT-2 cells by RNA assay; assay type: functional; conditions: Homo sapiens
[12] = tested on: Human immunodeficiency virus 1; assay: Potency against Mutant HIV-1 sV179D/L100I/Y181C; assay type: functional
Homo sapiens [13] = organism: Homo sapiens; assay: (§2) percentage of the free compound in human serum; assay type: cell-free
MT2 [14] = assay: Protein Binding was evaluated by PB shift in MT-2 by RNA assay; assay type: functional; conditions: Homo sapiens
[15] = tested on: Human immunodeficiency virus 1; assay: Potency against Mutant HIV-1 sL100I; assay type: functional
[16] = tested on: Human immunodeficiency virus 1; assay: Plasma Potency against Mutant HIV-1 sV179D/L100I/Y181C; assay type: functional
[17] = tested on: Human immunodeficiency virus 1; assay: Plasma antiviral activity was evaluated for RF strain of HIV-1; assay type: functional
[18] = tested on: Human immunodeficiency virus 1; assay: Calculated Potency against Mutant HIV-1 K103N; assay type: functional
MT2 [19] = assay: Antiviral activity against E, Zidovudine resistant clinical strain of HIV in MT-2 cells by yield assay; assay type: functional; conditions: Homo sapiens
MT2 [20] = assay: Antiviral activity against HIV-2 in MT-2 cells by yield assay; assay type: functional; conditions: Homo sapiens
[21] = tested on: Human immunodeficiency virus 1; assay: Calculated Potency against Mutant HIV-1 sV179D/L100I/Y181C; assay type: functional
[22] = tested on: Human immunodeficiency virus 1; assay: Calculated Potency against Mutant HIV-1 sL100I; assay type: functional
[23] = tested on: Human immunodeficiency virus 1; assay: Plasma Potency against Mutant HIV-1 sL100I; assay type: functional; conditions: Human immunodeficiency virus 1, Plasma
[24] = target: Human immunodeficiency virus type 1 reverse transcriptase (Human immunodeficiency virus 1) (UniProt Q72547); assay: Compound was evaluated for the inhibition of HIV-1 Reverse transcriptase
[25] = tested on: Human immunodeficiency virus 1; assay: Compound was evaluated for the inhibition of wilde-type RF strain of HIV-1; assay type: functional
[26] = tested on: Human immunodeficiency virus 1; assay: Compound was evaluated for the inhibition of wide-type RF strain of HIV-1; assay type: functional
[27] = tested on: Human immunodeficiency virus 1; assay: Antiviral activity against Thai 9466, a wild-type clinical strain of HIV in PBMC by P24 assay; assay type: functional
[28] = tested on: Human immunodeficiency virus 1; assay: Antiviral activity against A018C, Zidovudine resistant clinical strain of HIV in PBMC by P24 assay; assay type: functional
Homo sapiens [29] = organism: Homo sapiens; assay: as §2; assay type: functional
Homo sapiens [30] = organism: Homo sapiens; assay: as §1; assay type: functional
[31] = tested on: Human immunodeficiency virus 1; assay: Compound was evaluated for antiviral activity against L100I mutant virus; assay type: functional

SMILES | IC90 [1] [nM] | IC90 [2] [nM] | IC50 [3] [nM] | IC90 ([4]; Human immunodeficiency virus 1) [nM] | IC90 [5] [nM] | IC90 [6] [nM] | further results
O=C1Nc2ccc(Cl)cc2[C@@](C#Cc2ccccn2)(C(F)(F)F)N1 | 3730 | 3.4 | 129 | 160 | 64 | 79 | –
O=C1Nc2ccc(F)c(F)c2[C@@](/C=C/C2CC2)(C(F)(F)F)N1 | – | – | – | – | – | – | Free (Homo sapiens [7]): 53%; IC90 (MT2 [8]): 2.7 nM; IC90 [9]: 21 nM; IC90 [10]: 370 nM; IC90 (MT2 [11]): 2 nM; IC90 [12]: 250 nM; Free (Homo sapiens [13]): 3%; IC90 (MT2 [14]): 3.5 nM; IC90 [15]: 5.9 nM; IC90 [16]: 4300 nM; IC90 [17]: 33 nM; IC90 [18]: 11 nM; IC90 (MT2 [19]): 2.9 nM; IC90 (MT2 [20]): > 2800 nM; IC90 [21]: 130 nM; IC90 [22]: 3.1 nM; IC90 [23]: 100 nM
O=C1Nc2ccc(Cl)cc2[C@@](C#CC2CC2)(C(F)(F)F)N1 (stereo in doubt) | – | – | – | – | – | – | IC90 [24]: 31 nM
O=C1Nc2ccc(Cl)c(F)c2[C@@](C#CC2CC2)(C(F)(F)F)N1 | 151 | 4.8 | 102 | 18 | – | 40 | –
O=C1Nc2ccc(F)c(F)c2[C@@](C#CC2CC2)(C(F)(F)F)N1 (stereo in doubt; 13) [listing 1 of 2 here] | 119 | 2.1 | 74 | 13 | 12 | – | –
O=C1Nc2ccc(Cl)cc2[C@@](C#Cc2ccccc2)(C(F)(F)F)N1 | 3000 | 7.1 | 277 | 250 | 365 | 86 | –
O=C1Nc2ccc(Cl)cc2[C@](C#CC2CC2)(C(F)(F)F)N1 | – | – | – | – | – | – | IC90 [24]: 267 nM; IC90 [25]: 34000 nM
O=C1Nc2ccc(F)c(F)c2[C@@](C#CC2CC2)(C(F)(F)F)N1 (stereo in doubt) [listing 1 of 2 here] | – | – | – | – | – | – | Free (Homo sapiens [7]): 37%; Free (Homo sapiens [13]): 2.8%; IC90 [24]: 18 nM
COc1ccc2c(c1)[C@@](C#Cc1ccccn1)(C(F)(F)F)NC(=O)N2 | 5880 | 8.1 | 237 | 338 | 98 | 138 | –
Cc1ccnc2c1NC(=O)c1cccnc1N2C1CC1 [NEVIRAPINE] | 10200 | 50 | – | 5100 | – | 100 | –
O=C1Nc2ccc(F)c(F)c2[C@@](C#Cc2ccccn2)(C(F)(F)F)N1 | 1310 | 2 | 68 | 109 | 37 | 24 | –
CC(C)C#C[C@]1(C(F)(F)F)NC(=O)Nc2ccc(Cl)cc21 | 653 | 3 | 281 | 22 | 28 | 90 | –
O=C1Nc2ccc(F)c(Cl)c2[C@@](C#CC2CC2)(C(F)(F)F)N1 | 178 | 2.7 | 59 | 18 | 16 | 27 | –
O=C1Nc2ccc(F)c(F)c2[C@](C#CC2CC2)(C(F)(F)F)N1 | – | – | – | – | – | – | IC90 [24]: 6600 nM; IC90 [25]: 101 nM
COc1ccc2c(c1)[C@@](C#Cc1ccccc1)(C(F)(F)F)NC(=O)N2 | 3590 | 3.2 | 219 | 283 | 462 | 42 | –
O=C1Nc2ccc(F)c(F)c2[C@@](C#CC2CC2)(C(F)(F)F)N1 (stereo in doubt) [listing 2 of 2 here] | – | – | – | – | – | – | IC90 [26]: 1.3 nM; IC90 (MT2 [8]): 2.3 nM; IC90 [27]: 1.9 nM; IC90 [9]: 11 nM; IC90 [10]: 140 nM; IC90 (MT2 [11]): 1.3 nM; IC90 [12]: 110 nM; IC90 (MT2 [14]): 6.9 nM; IC90 [15]: 8 nM; IC90 [16]: 1460 nM; IC90 [17]: 18 nM; IC90 [18]: 4 nM; IC90 (MT2 [19]): 1.7 nM; IC90 [4]: 11 nM; IC90 [28]: 1.6 nM; IC90 (MT2 [20]): > 950 nM; IC90 [21]: 41 nM; IC90 [22]: 3 nM; IC90 [23]: 110 nM
O=C1Nc2cccc(Cl)c2[C@@](C#CC2CC2)(C(F)(F)F)N1 | 441 | 2.5 | 72 | 63 | 70 | 18 | –
CC(C)C#C[C@]1(C(F)(F)F)NC(=O)Nc2ccc(F)cc21 | 891 | 2.6 | 39 | 27 | 17 | 86 | –
O=C1Nc2ccc(F)cc2[C@@](C#CC2CC2)(C(F)(F)F)N1 | 566 | 2 | 50 | 48 | 29 | 24 | –
O=C1Nc2ccc(Cl)c(Cl)c2[C@@](C#CC2CC2)(C(F)(F)F)N1 | 196 | 8 | 166 | 18 | – | 88 | –

SMILES | IC90 [1] [nM] | IC90 [2] [nM] | IC50 [3] [nM] | IC90 ([4]; Human immunodeficiency virus 1) [nM] | IC90 [5] [nM] | IC90 [6] [nM] | further results
O=C1Nc2ccc(Cl)cc2[C@@](C#CC2CC2)(C(F)(F)F)N1 (stereo in doubt; 14) [listing 1 of 2 here] | 336 | 2.7 | 111 | – | 18 | – | IC90 [4]: 22 nM
CC(C)C#C[C@]1(C(F)(F)F)NC(=O)Nc2ccc(F)c(Cl)c21 | 74 | 3 | 78 | 15 | 13 | 15 | –
CC(C)Nc1cccnc1N1CCN(C(=O)c2cc3cc(NS(C)(=O)=O)ccc3[nH]2)CC1 [DELAVIRDINE] | 38000 | 37 | – | 1000 | – | – | –
COc1ccc2c(c1)[C@@](C#CC(C)C)(C(F)(F)F)NC(=O)N2 | 599 | 3.8 | 401 | 56 | 28 | 42 | –
O=C1Nc2ccc(F)cc2[C@@](C#Cc2ccccc2)(C(F)(F)F)N1 | 3220 | 6.6 | 143 | 322 | 677 | 66 | –
O=C1Nc2ccc(F)cc2[C@@](C#Cc2ccccn2)(C(F)(F)F)N1 | 3140 | 5 | 126 | 483 | 255 | 33 | –
O=C1Nc2cccc(F)c2[C@@](C#CC2CC2)(C(F)(F)F)N1 | 917 | 1.4 | 62 | 89 | 108 | 14 | –
O=C1Nc2ccc(F)c(F)c2[C@@](C#CC2CC2)(C(F)(F)F)N1 (stereo in doubt; 13) [listing 2 of 2 here] | – | – | – | – | – | 19 | –
CC(C)C#C[C@]1(C(F)(F)F)NC(=O)Nc2ccc(F)c(F)c21 (stereo in doubt; 37) [listing 1 of 2 here] | – | – | – | – | – | – | IC90 [24]: 15 nM
O=C1Nc2ccc(Cl)cc2[C@@](/C=C/C2CC2)(C(F)(F)F)N1 | – | – | – | – | – | – | Free (Homo sapiens [29]): 2%; IC90 (MT2 [8]): 1.9 nM; IC90 [27]: 0.9 nM; IC90 [9]: 27 nM; IC90 [10]: 550 nM; IC90 (MT2 [11]): 2.1 nM; IC90 [12]: 320 nM; IC90 (MT2 [14]): 3.7 nM; IC90 [15]: 11 nM; Free (Homo sapiens [30]): 39%; IC90 [16]: 6000 nM; IC90 [17]: 40 nM; IC90 [18]: 11 nM; IC90 (MT2 [19]): 1.3 nM; IC90 (MT2 [20]): > 2800 nM; IC90 [21]: 120 nM; IC90 [22]: 4.3 nM; IC90 [23]: 220 nM
CC(C)C#C[C@]1(C(F)(F)F)NC(=O)Nc2ccc(F)c(F)c21 (stereo in doubt; 20) [listing 1 of 2 here] | 139 | 2.1 | 91 | 14 | 10 | – | –
COc1ccc2c(c1)[C@@](C#CC1CC1)(C(F)(F)F)NC(=O)N2 | 396 | 2.9 | 124 | 40 | 46 | 29 | –
CC(C)C#C[C@]1(C(F)(F)F)NC(=O)Nc2ccc(F)c(F)c21 (stereo in doubt; 37) [listing 2 of 2 here] | – | – | – | – | – | – | IC90 [25]: 1.6 nM; IC90 [4]: 9 nM
CC(C)C#C[C@]1(C(F)(F)F)NC(=O)Nc2ccc(F)c(F)c21 (stereo in doubt; 20) [listing 2 of 2 here] | – | – | – | – | – | 21 | –
O=C1Nc2ccc(Cl)cc2[C@@](C#CC2CC2)(C(F)(F)F)N1 (stereo in doubt; 14) [listing 2 of 2 here] | – | – | – | – | – | 41 | –
O=C1Nc2ccc(F)c(F)c2[C@@](C#Cc2ccccc2)(C(F)(F)F)N1 | 1340 | 6.2 | 181 | 191 | 256 | 43 | –
CCC#C[C@]1(C(F)(F)F)NC(=O)Nc2ccc(F)cc21 | 710 | 2.5 | 54 | 71 | – | 25 | IC90 [31]: 74 nM
CCC#C[C@]1(C(F)(F)F)NC(=O)Nc2ccc(Cl)cc21 | 826 | 3.3 | 110 | 26 | – | 83 | –
CC(C)C#C[C@@]1(C(F)(F)F)NC(=O)Nc2ccc(F)c(F)c21 | – | – | – | – | – | – | IC90 [24]: 1520 nM; IC90 [25]: 229 nM
